Experimental data as given in US20180036439A1, “COUPLED IDENTIFICATION AND TREATMENT OF CANCER” (priority 2009, published 2018).
Values belong to the compound of their own block, whether it stands above or below them.

Key:
Assay type in all cases: in vivo, human
[1] = tolerability of Nexavar treatment in the subject with primary liver cancer; conditions: 800 mg/day, terminated after about 10 weeks; one patient
Method: (§1) The subject of this study was a person who was diagnosed with non-resectable primary liver cancer (hepatocellular carcinoma). The diagnosis was based on results of x-ray CT scans and tumor biopsy. Within two weeks of diagnosis the subject began treatment with Nexavar® (sorafenib) at a dose of 800 mg/day.

[2] = test system: liver tumors (hepatocellular carcinoma); experiment: gallium scan (planar and SPECT) after intravenous ^67Ga citrate; conditions: 134 MBq ^67Ga citrate i.v., one patient
Method: Very briefly, a gallium scan is performed by administering a small amount of a gallium radioisotope (usually ^67Ga) to a subject and then scanning the subject to map the distribution of resulting radioactivity in the body; the amount of radioactivity will be directly proportional to the uptake of gallium. Scanning is performed on the whole body or portions of the body using a scintillation detector or other suitable radiation detector.
Scanning is performed using a scintillation detector or another detector that is sensitive to the radiation produced by the gallium radioisotope (e.g., gamma rays for ^67Ga). For ^67Ga, a multipeak gamma camera with a large field of view and head shielding is commonly used. Scans may be either planar (two-dimensional (2-D) imaging) or as multiple tomographic scans leading to three-dimensional (3-D) imaging. The latter scans generally employ single-photon emission computerized tomography (SPECT or SPET), which may provide higher contrast and localization than planar images alone.
Planar and SPECT images were obtained 48 hours after ^67Ga citrate administration. […] At that time the subject was experiencing moderate nausea, anorexia, and fatigue, with severe pain and tenderness of the right abdomen that prevented the subject from lying on their right side.

[3] = test system: non-resectable primary liver cancer (hepatocellular carcinoma); experiment: oral gallium maltolate treatment of a subject with primary liver cancer; conditions: one patient
Method: as §1
Based on the high avidity of the subject's hepatocellular carcinoma for gallium, as shown by the gallium scans, treatment of the patient with orally administered gallium maltolate was initiated. Treatment was started about a week after the gallium scans were performed. Gallium maltolate was administered as two 750 mg tablets taken once per day before breakfast (for a dose of 1500 mg/day). The largest tumor was about 20 cm in diameter by CT scan at three weeks before gallium maltolate administration was started.
The patient reported that their right abdominal pain was nearly gone, and they could lie and sleep on their right side.

[4] = about four months into treatment, 1500 mg/day oral
[5] = two weeks after start of 1500 mg/day oral

SMILES: CNC(=O)c1cc(Oc2ccc(NC(=O)Nc3ccc(Cl)c(C(F)(F)F)c3)cc2)ccn1 [Nexavar®, sorafenib]
- adverse effects that led to termination of treatment [1]: severe peripheral neuropathy, nausea, fatigue, gastrointestinal disorders, and anorexia

- gallium uptake in the surrounding liver tissue and in other organs ([2]; images 48 hours after administration): very low uptake
- gallium uptake in the liver tumors, average counts per second relative to surrounding healthy liver tissue ([2]; planar and SPECT images 48 hours after administration): twenty to fifty
SMILES: O=C([O-])CC(O)(CC(=O)[O-])C(=O)[O-].[67Ga+3] [^67Ga citrate]

SMILES: Cc1occc(=O)c1[O-].Cc1occc(=O)c1[O-].Cc1occc(=O)c1[O-].[Ga+3] [gallium maltolate, tris(3-hydroxy-2-methyl-4H-pyran-4-onato)gallium]
- state of the primary tumor by CT scan [3, 4]: apparent necrosis of the primary tumor
- tumor growth by CT scan [3, 4]: no new tumor growth
- patient's condition ([3]; over the next six months of treatment, 1500 mg/day oral): continued to improve
- serum bilirubin (total) ([3]; two weeks after start of 1500 mg/day oral, before treatment 27.5, normal 2-20): 11.9 µmol/L
- serum AST ([3]; two weeks after start of 1500 mg/day oral, before treatment 132, normal 0-40): 70 IU/L
- ability to engage in normal activities [3, 5]: substantially increased
- right abdominal pain (patient report) [3, 5]: nearly gone
